Measured values: patent US20250333397A1 (REMIX THERAPEUTICS INC., priority 2021, published 2025)
Read-outs that look alike come from different tables or passages of the source.

Columns and labels:
Type in all cases: cell-based, human
SMN2 mRNA = assay: RT-qPCR splicing assay panel, SMN2 canonical junction (CJ) mRNA; settings: Homo sapiens
Summary of the method: (§1)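 Junction-specific RT-qPCR read the canonical exon-exon junction and the compound-induced alternative-exon junction, normalized to GAPDH, GUSB or PPIA and then to DMSO (2^(-ΔΔCt)). Input was lysate from A673 or K562 cells exposed for 24 h to compound up to 10 uM.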

Target C mRNA = assay: RT-qPCR splicing assay panel, Target C canonical junction (CJ) mRNA; settings: Homo sapiens
Summary of the method: as §1

HTT mRNA = assay: RT-qPCR splicing assay, HTT canonical (CJ) and alternative (AJ) junction mRNA; settings: Homo sapiens; for AC50: read-out: HTT AJ (AC50, increase in AJ mRNA)
Summary of the method: as §1

MYB mRNA = assay: RT-qPCR splicing assay, MYB canonical (CJ) and alternative (AJ) junction mRNA; settings: Homo sapiens; for AC50: read-out: MYB AJ (AC50, increase in AJ mRNA)
Summary of the method: as §1

[1] = canonical junction (CJ) mRNA, RT-qPCR panel, Table 4A, read-out: SMN2, decrease in CJ mRNA levels, IC50
[2] = canonical junction (CJ) mRNA, RT-qPCR panel, Table 4A, read-out: Target C, decrease in CJ mRNA levels, IC50
[3] = canonical junction (CJ) mRNA, RT-qPCR panel, Table 4A, read-out: HTT, decrease in CJ mRNA levels, IC50
[4] = canonical junction (CJ) mRNA, RT-qPCR panel, Table 4A, read-out: MYB, decrease in CJ mRNA levels, IC50
[5] = Table 4B, gene panel, read-out: SMN2 (IC50, decrease in CJ mRNA levels)
[6] = Table 4B, gene panel, read-out: Target C (IC50, decrease in CJ mRNA levels)
[7] = 24 h, Table 3B, A673 or K562 cells, 24 h treatment
[8] = 24 h, Table 3B, A673 or K562 cells, 24 h treatment, read-out: HTT CJ (IC50, decrease in CJ mRNA)
[9] = Table 4B, gene panel, read-out: HTT (IC50, decrease in CJ mRNA levels)
[10] = 24 h, Table 3B, A673 or K562 cells, 24 h treatment, read-out: MYB CJ (IC50, decrease in CJ mRNA)
[11] = Table 4B, gene panel, read-out: MYB (IC50, decrease in CJ mRNA levels)

Compound | IC50 (SMN2 mRNA; [1]) [µM] | IC50 (Target C mRNA; [2]) [µM] | IC50 (HTT mRNA; [3]) [µM] | IC50 (MYB mRNA; [4]) [µM] | IC50 (SMN2 mRNA; [5]) [µM] | IC50 (Target C mRNA; [6]) [µM] | IC50 (HTT mRNA; [8]) [µM] | IC50 (HTT mRNA; [9]) [µM] | IC50 (MYB mRNA; [10]) [µM] | IC50 (MYB mRNA; [11]) [µM] | AC50 (HTT mRNA; [7]) [µM] | AC50 (MYB mRNA; [7]) [µM]
COc1cc(-c2cc(O)c(-c3ccc(N4CC[C@](C)(NCC5CC5)C4)nn3)cc2F)cnn1 [Compound 452, 2-{6-[(3S)-3-[(cyclopropylmethyl)amino]-3-methylpyrrolidin-1-yl]pyridazin-3-yl}-4-fluoro-5-(6-methoxypyridazin-4-yl)phenol] | 0.1 to 1 | 0.1 to 1 | < 0.1 | 0.1 to 1 |  |  |  |  |  |  |  | 
Cc1ncc(-c2cc(O)c(-c3ccc(N4CC[C@@H](CNC5CCC5)C4)nn3)cc2F)s1 [Compound 453] | < 0.1 | 1 to 10 | < 0.1 | 1 to 10 |  |  |  |  |  |  |  | 
Cc1ncc(-c2cc(O)c(-c3ccc(N4CC[C@H](CNC5CCC5)C4)nn3)cc2F)s1 [Compound 454] | < 0.1 | 0.1 to 1 | < 0.1 | 1 to 10 |  |  |  |  |  |  |  | 
Oc1cc(-c2cc(OC(F)(F)F)ncn2)ccc1-c1ccc(N2CCC(NCC3CC3)C2)nn1 (stereo not drawn) [Compound 455] | > 10 | > 10 | > 10 | > 10 |  |  |  |  |  |  |  | 

Further lines, with some results ahead:

IC50 (SMN2 mRNA; [1]) [µM] | IC50 (Target C mRNA; [2]) [µM] | IC50 (HTT mRNA; [3]) [µM] | IC50 (MYB mRNA; [4]) [µM] | IC50 (SMN2 mRNA; [5]) [µM] | IC50 (Target C mRNA; [6]) [µM] | IC50 (HTT mRNA; [8]) [µM] | IC50 (HTT mRNA; [9]) [µM] | IC50 (MYB mRNA; [10]) [µM] | IC50 (MYB mRNA; [11]) [µM] | Compound | AC50 (HTT mRNA; [7]) [µM] | AC50 (MYB mRNA; [7]) [µM]
 |  |  |  | < 0.1 | 0.1 to 1 | 0.1 to 1 | 0.1 to 1 | 1 to 10 | 1 to 10 | Cn1c(=O)oc2cc(-c3ccc(N4CCC(NC(C)(C)C)C4)nn3)c(O)cc21 (stereo not drawn) [Compound 800] | 0.1 to 1 | 0.1 to 1
 |  |  |  | 0.1 to 1 | 1 to 10 | 1 to 10 | 1 to 10 | 1 to 10 | 1 to 10 | Cn1cc2cc(-c3ccc(N4CCC(NC(C)(C)C)C4)nn3)c(O)cc2n1 (stereo not drawn) [Compound 801] | 1 to 10 | 1 to 10
 |  |  |  | 1 to 10 | 1 to 10 | 0.1 to 1 | 0.1 to 1 | 1 to 10 | 1 to 10 | Cn1cc2cc(-c3cnc(N4CC[C@@H](NC(C)(C)C)C4)nn3)c(O)cc2n1 [Compound 805] | 1 to 10 | > 10
 |  |  |  | 1 to 10 | > 10 | 1 to 10 | 1 to 10 | > 10 | > 10 | Cc1nc2cc(O)c(-c3cnc(N4CC[C@@H](NC(C)(C)C)C4)nn3)cc2o1 [Compound 808] | > 10 | > 10
 |  |  |  | 0.1 to 1 | 1 to 10 | < 0.1 | < 0.1 | 1 to 10 | 1 to 10 | Cc1nc2cc(O)c(-c3cnc(N4CC[C@H](NC(C)(C)C)C4)nn3)cc2o1 [Compound 809] | 1 to 10 | 1 to 10
 |  |  |  | < 0.1 | 0.1 to 1 | < 0.1 | < 0.1 | 0.1 to 1 | 0.1 to 1 | Cc1nc2cc(O)c(-c3ccc(N4CC[C@@H](NC(C)(C)C)C4)nn3)cc2o1 [Compound 812] | < 0.1 | 0.1 to 1
 |  |  |  | 0.1 to 1 | 1 to 10 | 0.1 to 1 | 0.1 to 1 | 1 to 10 | 1 to 10 | Cc1nc2cc(O)c(-c3ccc(N4CC[C@H](NC(C)(C)C)C4)nn3)cc2o1 [Compound 813] | 1 to 10 | 1 to 10
